Results from article PMC12624831, “Expanding Peptide Chemical Space via Acid-Mediated Arginine Modification” (Organic Letters, 2025).
*1 amine or outer side, *2 acyl side, *3 side chain or, on linkers, in order; H or OH if unused. Where a SMILES comes first, the peptide text is derived from it. [ ]: non-standard residue; d: D form. The star is where a group is joined. NH(CH2CH2O)2(CH2)6Cl = ClCCCCCCOCCOCCN*; Suc = O=C(CCC(=O)[*:2])[*:1]; 2Pyrimidinyl = c1cnc(*)nc1; Orn = NCCC[C@H](N)C(=O)O

Tested on: HEK cells stably expressing a HaloTag-GFP-mitochondrial localized construct
Experiment: Chloroalkane penetration/permeability assay (CAPA)
Format: in vitro ADME
Conditions: modified peptide versus its unmodified control (ct-1l, ct-1m)
Description: at room temperature. Peptides were synthesized using standard protocols. Peptides were cleaved from the resin using a cocktail of 95:5, trifluoroacetic acid:water for 2 h. The resin was removed by filtration, and the resulting solution was concentrated via air flow. The residue was washed with cold ether (3 x 10 mL), precipitating a white solid. Ether was removed via vacuum overnight. The white solid was diluted with ACN/H2O mixture. The resulting solution was purified by HPLC.
VI. BD FACSymphony™ Flow Cytometer. Flow cytometry analysis was performed on a BD FACSymphony™ system equipped with decagon (2-10 PMTs) or cascade (2-20 PMTs) detector arrays. […] Signal detection combines PMTs (side scatter/fluorescence) and photodiodes (forward scatter), with longpass dichroic and bandpass filters for wavelength selection. […] The absorbance of the molecule is 533 nm and emission is […]
VII. […] After recovery from selection and reaching near-confluency, the cells were deemed ready for CAPA experiments. […]
Experimental Protocol Design Control Implementation. […] No-molecule control wells receive only dilution buffer during the pulse step, thereby establishing the maximum red fluorescence baseline. […]

Row | Compound | increase in membrane permeability following conversion of arginine into the amino pyrimidine derivative [fold]
1 | CC(C)[C@H](NC(=O)CCC(=O)NCCOCCOCCCCCCCl)C(=O)NCC(=O)N[C@@H](CCCNc1ncccn1)C(=O)N[C@@H](C)C(=O)N[C@@H](Cc1c[nH]c2ccccc12)C(=O)N[C@@H](CC(N)=O)C(=O)N[C@@H](Cc1ccc(O)cc1)C(=O)N[C@@H](C)C(N)=O [ct-2m] ({NH(CH2CH2O)2(CH2)6Cl-Suc}-VG[Orn](2Pyrimidinyl)AWNYA-NH2) | 2
2 | CC[C@H](C)[C@H](NC(=O)[C@H](CO)NC(=O)[C@@H](NC(=O)[C@@H]1CCCN1C(=O)[C@H](CCCNc1ncccn1)NC(=O)[C@H](Cc1c[nH]c2ccccc12)NC(=O)CCC(=O)NCCOCCOCCCCCCCl)C(C)C)C(N)=O [ct-2l] ({NH(CH2CH2O)2(CH2)6Cl-Suc}-W[Orn](2Pyrimidinyl)PVSI-NH2) | 2
